pIC50: −log10 of the molar value.
Legend:
SMYD3 [1] = target: T1, SMYD3 (Homo sapiens (Human), UniProt Q9H7B4); test: SMYD3 cell assay (Trimethyl-MEKK2 In-Cell Western in 293T/17 cells); format: cell-based; conditions: read-out: SMYD3 Cell IC50*
Summary of the method: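 In-Cell Western readout: methanol-fixed cells stained for trimethyl-MEKK2 and flag tag, ratio per well normalized to DMSO and background controls.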

SMYD3 [2] = target: T1, SMYD3; test: SMYD3 biochemical assay (SPA, 3H-SAM methylation of MEKK2 protein substrate); conditions: read-out: SMYD3 Biochem IC50*
Summary of the method: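 Methylation of N-terminally GST-tagged MEKK2 by untagged full-length human SMYD3, using 3H-SAM, in pH 8.0 Tris buffer with TCEP, BSG and Tween 20; enzyme and compound sat 30 min at room temperature before substrate addition. Stopped with 100 uM (final) cold SAM; incorporation read by scintillation proximity as dpm/cpm.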

T1 sequence (Q9H7B4 whole entry): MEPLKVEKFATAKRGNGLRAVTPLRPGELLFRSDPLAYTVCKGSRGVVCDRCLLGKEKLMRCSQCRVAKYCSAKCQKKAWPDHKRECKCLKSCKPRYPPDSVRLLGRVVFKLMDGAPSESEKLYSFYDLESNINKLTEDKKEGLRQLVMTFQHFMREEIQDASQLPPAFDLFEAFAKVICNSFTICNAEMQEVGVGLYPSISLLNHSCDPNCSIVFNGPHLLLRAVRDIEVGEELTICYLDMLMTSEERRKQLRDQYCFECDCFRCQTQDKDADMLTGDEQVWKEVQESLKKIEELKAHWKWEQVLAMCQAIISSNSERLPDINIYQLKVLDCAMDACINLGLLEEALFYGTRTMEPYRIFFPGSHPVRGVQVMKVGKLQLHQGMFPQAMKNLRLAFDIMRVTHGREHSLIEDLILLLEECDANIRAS

Structure (SMILES)	pIC50 (SMYD3 [1])	pIC50 (SMYD3 [2])
CC(C)c1cc(C(=O)N[C@H]2C[C@H]3CC[C@@H](C2)N3S(=O)(=O)CC2CCN(C)CC2)no1 [compound 879, 5-isopropyl-N-((1R,3r,5S)-8-(((1-methylpiperidin-4-yl)methyl)sulfonyl)-8-azabicyclo[3.2.1]octan-3-yl)isoxazole-3-carboxamide]	6.69	7.97
CN(Cc1ccccc1)C1CCN(S(=O)(=O)N2[C@@H]3CC[C@H]2C[C@@H](NC(=O)c2cc(C4CC4)on2)C3)CC1 [compound 880, N-((1R,3r,5S)-8-((4-(benzyl(methyl)amino)piperidin-1-yl)sulfonyl)-8-azabicyclo[3.2.1]octan-3-yl)-5-cyclopropylisoxazole-3-carboxamide]	6.34	7.96
O=C(N[C@H]1C[C@H]2CC[C@@H](C1)N2S(=O)(=O)N1CC2CCC(C1)N2CCO)c1cc(C2CC2)on1 [compound 881, 5-cyclopropyl-N-((1R,3r,5S)-8-((8-(2-hydroxyethyl)-3,8-diazabicyclo[3.2.1]octan-3-yl)sulfonyl)-8-azabicyclo[3.2.1]octan-3-yl)isoxazole-3-carboxamide]	7.16	7.96
C[C@@H](C1CCNCC1)S(=O)(=O)N1[C@@H]2CC[C@H]1C[C@@H](NC(=O)c1cc(C3CC3)on1)C2 [compound 882, 5-cyclopropyl-N-((1R,3S,5S)-8-(((S)-1-(piperidin-4-yl)ethyl)sulfonyl)-8-azabicyclo[3.2.1]octan-3-yl)isoxazole-3-carboxamide]	7.07	7.95
O=C(N[C@H]1C[C@H]2CC[C@@H](C1)N2S(=O)(=O)[C@H]1CCCCNC1)c1cc(C2CC2)on1 [compound 883, N-((1R,3S,5S)-8-(((S)-azepan-3-yl)sulfonyl)-8-azabicyclo[3.2.1]octan-3-yl)-5-cyclopropylisoxazole-3-carboxamide]	6.89	7.92
O=C(N[C@H]1C[C@H]2CC[C@@H](C1)N2S(=O)(=O)NC1CCN[C@@H](Cc2ccccc2)C1)c1cc(C2CC2)on1 (stereo partly drawn) [compound 884, N-((1R,3S,5S)-8-(N-((2S)-2-benzylpiperidin-4-yl)sulfamoyl)-8-azabicyclo[3.2.1]octan-3-yl)-5-cyclopropylisoxazole-3-carboxamide]	6.55	7.92
CN[C@H]1CC[C@H](S(=O)(=O)N2CC[C@@H](NC(=O)c3cc(C4CC4)on3)[C@@H](C)C2)CC1 [compound 885, 5-cyclopropyl-N-((3S,4R)-3-methyl-1-(((1r,4S)-4-(methylamino)cyclohexyl)sulfonyl)piperidin-4-yl)isoxazole-3-carboxamide]	6.80	7.92
C[C@H]1C[C@@H](NS(=O)(=O)N2[C@@H]3CC[C@H]2C[C@@H](NC(=O)c2cc(C4CC4)on2)C3)CCN1 [compound 886, 5-cyclopropyl-N-((1R,3S,5S)-8-(N-((2S,4S)-2-methylpiperidin-4-yl)sulfamoyl)-8-azabicyclo[3.2.1]octan-3-yl)isoxazole-3-carboxamide]	6.69	7.92
CC1CN(S(=O)(=O)N2[C@@H]3CC[C@H]2C[C@@H](NC(=O)c2cc(C4CC4)on2)C3)CCN1 (stereo partly drawn) [compound 887, 5-cyclopropyl-N-((1R,3r,5S)-8-((3-methylpiperazin-1-yl)sulfonyl)-8-azabicyclo[3.2.1]octan-3-yl)isoxazole-3-carboxamide]	7.06	7.91
COCCCN1C2CCC1CN(S(=O)(=O)N1[C@@H]3CC[C@H]1C[C@@H](NC(=O)c1cc(C4CC4)on1)C3)C2 [compound 888, 5-cyclopropyl-N-((1R,3r,5S)-8-((8-(3-methoxypropyl)-3,8-diazabicyclo[3.2.1]octan-3-yl)sulfonyl)-8-azabicyclo[3.2.1]octan-3-yl)isoxazole-3-carboxamide]	6.93	7.91
CCN(CC)C1CCN(S(=O)(=O)N2[C@@H]3CC[C@H]2C[C@@H](NC(=O)c2cc(C4CC4)on2)C3)CC1 [compound 889, 5-cyclopropyl-N-((1R,3r,5S)-8-((4-(diethylamino)piperidin-1-yl)sulfonyl)-8-azabicyclo[3.2.1]octan-3-yl)isoxazole-3-carboxamide]	6.66	7.90
CC1CC(N)CCN1S(=O)(=O)N1CC[C@H](NC(=O)c2cc(C3CC3)on2)C[C@@H]1C (stereo partly drawn) [compound 890, N-((2S,4S)-1-((4-amino-2-methylpiperidin-1-yl)sulfonyl)-2-methylpiperidin-4-yl)-5-cyclopropylisoxazole-3-carboxamide]	6.62	7.88
NC1[C@@H]2CC[C@H]1CN(S(=O)(=O)N1[C@@H]3CC[C@H]1CC(NC(=O)c1cc(C4CC4)on1)C3)C2 (stereo partly drawn) [compound 891, N-((1R,3R,5S)-8-(((1R,5S)-8-amino-3-azabicyclo[3.2.1]octan-3-yl)sulfonyl)-8-azabicyclo[3.2.1]octan-3-yl)-5-cyclopropylisoxazole-3-carboxamide]	6.84	7.88
O=C(N[C@H]1C[C@H]2CC[C@@H](C1)N2S(=O)(=O)N1CCC(NCc2ccc(C(F)(F)F)cc2)CC1)c1cc(C2CC2)on1 [compound 892, 5-cyclopropyl-N-((1R,3r,5S)-8-((4-((4-(trifluoromethyl)benzyl)amino)piperidin-1-yl)sulfonyl)-8-azabicyclo[3.2.1]octan-3-yl)isoxazole-3-carboxamide]	6.57	7.87
CN1CCC(NS(=O)(=O)N2[C@@H]3CC[C@H]2C[C@@H](NC(=O)c2cc(C4CC4)on2)C3)CC1 [compound 893, 5-cyclopropyl-N-((1R,3r,5S)-8-(N-(1-methylpiperidin-4-yl)sulfamoyl)-8-azabicyclo[3.2.1]octan-3-yl)isoxazole-3-carboxamide]	6.62	7.86
CN1CCC([C@@H](Cc2ccccc2)S(=O)(=O)N2[C@@H]3CC[C@H]2C[C@@H](NC(=O)c2cc(C4CC4)on2)C3)CC1 [compound 894, 5-cyclopropyl-N-((1R,3R,5S)-8-(((R)-1-(1-methylpiperidin-4-yl)-2-phenylethyl)sulfonyl)-8-azabicyclo[3.2.1]octan-3-yl)isoxazole-3-carboxamide]	6.55	7.86
CN1CC2CCC1CN2S(=O)(=O)N1[C@@H]2CC[C@H]1C[C@@H](NC(=O)c1cc(C3CC3)on1)C2 [compound 895, 5-cyclopropyl-N-((1R,3r,5S)-8-((5-methyl-2,5-diazabicyclo[2.2.2]octan-2-yl)sulfonyl)-8-azabicyclo[3.2.1]octan-3-yl)isoxazole-3-carboxamide]	6.73	7.86
CC1(N)CCC(S(=O)(=O)N2[C@@H]3CC[C@H]2C[C@@H](NC(=O)c2cc(C4CC4)on2)C3)CC1 (stereo partly drawn) [compound 896, N-((1R,3R,5S)-8-(((1r,4R)-4-amino-4-methylcyclohexyl)sulfonyl)-8-azabicyclo[3.2.1]octan-3-yl)-5-cyclopropylisoxazole-3-carboxamide]	7.06	7.85
O=C(N[C@H]1C[C@H]2CC[C@@H](C1)N2S(=O)(=O)NC1CCNCC1)c1cc(C2CC2)on1 [compound 897, 5-cyclopropyl-N-((1R,3r,5S)-8-(N-(piperidin-4-yl)sulfamoyl)-8-azabicyclo[3.2.1]octan-3-yl)isoxazole-3-carboxamide]	6.37	7.85
C[C@@H](NC1CCN(S(=O)(=O)N2CC[C@H](NC(=O)c3cc(C4CC4)on3)C[C@@H]2C)CC1)c1ccccc1 [compound 898, 5-cyclopropyl-N-((2S,4S)-2-methyl-1-((4-(((R)-1-phenylethyl)amino)piperidin-1-yl)sulfonyl)piperidin-4-yl)isoxazole-3-carboxamide]	6.62	7.84
COCCCN(C)C1CCN(S(=O)(=O)N2[C@@H]3CC[C@H]2C[C@@H](NC(=O)c2cc(C4CC4)on2)C3)CC1 [compound 899, 5-cyclopropyl-N-((1R,3r,5S)-8-((4-((3-methoxypropyl)(methyl)amino)piperidin-1-yl)sulfonyl)-8-azabicyclo[3.2.1]octan-3-yl)isoxazole-3-carboxamide]	6.77	7.84
CN[C@H]1CC[C@@H](S(=O)(=O)N2CC[C@@H](NC(=O)c3cc(C4CC4)on3)[C@@H](C)C2)CC1 [compound 900, 5-cyclopropyl-N-((3S,4R)-3-methyl-1-(((1s,4R)-4-(methylamino)cyclohexyl)sulfonyl)piperidin-4-yl)isoxazole-3-carboxamide]	6.75	7.84
CC1CNCCN1S(=O)(=O)N1[C@@H]2CC[C@H]1C[C@@H](NC(=O)c1cc(C3CC3)on1)C2 (stereo partly drawn) [compound 901, 5-cyclopropyl-N-((1R,3r,5S)-8-((2-methylpiperazin-1-yl)sulfonyl)-8-azabicyclo[3.2.1]octan-3-yl)isoxazole-3-carboxamide]	7.01	7.82
CCC1CNCCN1S(=O)(=O)N1[C@@H]2CC[C@H]1C[C@@H](NC(=O)c1cc(C3CC3)on1)C2 (stereo partly drawn) [compound 902, 5-cyclopropyl-N-((1R,3r,5S)-8-((2-ethylpiperazin-1-yl)sulfonyl)-8-azabicyclo[3.2.1]octan-3-yl)isoxazole-3-carboxamide]	6.81	7.82
CC1CC(CS(=O)(=O)N2CC[C@H](NC(=O)c3cc(C4CC4)on3)C[C@@H]2C)CC(C)N1 (stereo partly drawn) [compound 903, 5-cyclopropyl-N-((2S,4S)-1-(((2,6-dimethylpiperidin-4-yl)methyl)sulfonyl)-2-methylpiperidin-4-yl)isoxazole-3-carboxamide]	6.56	7.79

— patent publication US10577363B2, “Substituted piperidine compounds” (EPIZYME, INC., priority 2014, dated 2020)
